The text below walks through data of patent US7202268B2, “Derivatives of indole-3-carboxamide, preparation method thereof and application of same in therapeutics” (Sanofi-aventis, priority 2002, dated 2007).

On to `CC(C)(C)CNC(=O)c1cn(CCCS(C)(=O)=O)c2c(Cl)c(Cl)ccc12`, for which the melting point fell in the range of 208 to 211 °C.

`CCC(C)(C)NC(=O)c1cn(CCCSC)c2c(Cl)c(Cl)ccc12` displayed a melting point of 100 to 103 °C.

`CSCCCn1cc(C(=O)NCC(C)(C)C)c2ccc(Cl)c(Cl)c21` yielded a melting point of 170 to 173 °C.

For orientation: melting point means the temperature of the solid-liquid transition.
